{"source": "patent US12122774B2", "about": "“Compounds as MYT1 inhibitors” (WIGEN BIOMEDICINE TECHNOLOGY (SHANGHAI) CO., LTD., priority 2022, dated 2024)", "key": {"MIA PaCa-2 cells [1]": {"system": "MIA PaCa-2 cells", "assay": "In vitro anti-proliferative activity against MIA PaCa-2 cells (compound alone)", "assay_type": "cell-based", "settings": "Homo sapiens, MIA PaCa-2, 72 h, intracellular ATP content", "procedure": "MIA PaCa-2 cells were seeded on a 384-well plate at 3000 cells/well. After overnight adherence culture, DMSO or the compounds serially diluted 1:5 from 10 µM were added. The viability was assessed 72 h after dosing by measuring the intracellular ATP content. The inhibition percentage of viable cells by the compounds was calculated by comparing with the DMSO group, and the IC50 value was calculated."}, "[2]": {"assay": "In vitro solubility experiment", "assay_type": "physicochemical", "settings": "organic solvent or mixture, thermodynamic from solid"}, "[3]": {"assay": "In vivo pharmacokinetic experiment", "set-up": "species or system CD-1 female mice", "settings": "mice", "procedure": "CD-1 female mice aged 7 to 10 weeks were intravenously administered and orally administered at a dose of 2 mg/kg and 10 mg/kg, respectively. The mice were fasted for at least 12 h before the administration and given food 4 h after the administration, and they were given ad libitum access to water during the experiment. On the day of the experiment, animals in the intravenous group were administered the corresponding compound by single injection via the tail vein at an administration volume of 10 mL/kg. Animals in the oral group were administered the corresponding compound by single intragastric injection at an administration volume of 10 mL/kg. The animals were weighed before administration, and the administration volume was calculated according to the body weight. The sample collection time was 0.083 h (injection group), 0.167 h, 0.5 h, 1 h, 2 h, 4 h, 8 h, and 24 h. About 200 μL of whole blood was collected through the submaxillary venous plexus at each time point and used to prepare plasma for concentration determination by high-performance liquid chromatography-tandem mass spectrometry (LC-MS/MS). All animals were euthanized with CO2 anesthesia after the PK samples were collected at the last time point. The plasma concentrations were processed using a non-compartmental model of Phoenix WinNonlin™ version 8.3 (Certara) pharmacokinetic software, and the pharmacokinetic parameters were calculated using a linear-log trapezoidal method."}, "in vitro": {"assay": "in vitro", "settings": "dog, MDCK", "procedure": "(§1) In vitro passive permeability or the ability to serve as a P-glycoprotein (P-gp) transport substrate was tested using MDCK cells (MDCK wild type) or MDCK cells stably transduced with MDR1 (MDCK-MDR1), respectively. The permeability experiment was performed in duplicate in a transwell system at a single concentration (5 μM). The cells were incubated for 90 min. Apical-to-basolateral (A to B, A-B) transport and basolateral-to-apical (B to A, B-A) transport of the corresponding compound were determined, and the permeation rate (apparent permeability) (Papp×10^−6 cm/sec) and efflux ratio (Papp (B-A)/Papp (A-B)) of the test compound were calculated."}, "[4]": {"assay": "In vitro solubility experiment", "assay_type": "physicochemical", "settings": "for solubility at 0.5 h: thermodynamic from solid", "procedure": "(§2) Preparation of a standard curve: 10.01 mg of sample was weighed out and placed in a volumetric flask, and the volume was brought to 10 mL with acetonitrile/water (v/v, 9/1) to prepare 1.001 mg/mL of standard solution; the standard solution was then serially diluted to 0.5005 mg/mL, 0.1001 mg/mL, 0.05005 mg/mL, 0.01001 mg/mL, and 0.001001 mg/mL to generate the standard curve, and a linear equation was fitted by taking the peak area of the sample as a vertical axis and the concentration as a horizontal axis. Solubility and stability test: 15 mg of sample was added to 3 mL of vehicle (FaSSIF, FeSSIF, SGF, or water) to prepare a corresponding suspension at a target concentration of 5 mg/mL. The prepared suspension was stirred on a shaker (800 rpm) at 37° C. for 0.5 h, and the suspension was then filtered. The filtrate was diluted with a diluent to a corresponding multiple so that the peak height could not exceed the standard curve, and the solubility and purity were detected using HPLC."}, "[5]": {"system": "P-glycoprotein (P-gp, MDR1)", "assay": "in vitro", "settings": "dog", "procedure": "as §1"}, "[6]": {"system": "MDCK cells stably transduced with MDR1 (MDCK-MDR1)", "assay": "in vitro", "settings": "MDCK-MDR1", "procedure": "as §1"}, "[7]": {"assay": "In vitro stability experiment (HPLC purity of filtrate)", "assay_type": "physicochemical", "procedure": "as §2"}, "MIA PaCa-2 cells [8]": {"system": "MIA PaCa-2 cells", "assay": "In vitro anti-proliferative activity in combination with gemcitabine against MIA PaCa-2 cells", "assay_type": "cell-based", "procedure": "MIA PaCa-2 cells were seeded on a 384-well plate at 3000 cells/well, and 20 nM gemcitabine was added. After overnight adherence culture, DMSO or the compounds serially diluted 1:5 from 1000 nM were added. The viability was assessed 72 h after dosing by measuring the intracellular ATP content. The inhibition percentage of viable cells by the compounds was calculated by comparing with the DMSO group, and the IC50 value was calculated."}, "[9]": {"settings": "female, CD-1, mouse, plasma, iv, injection 2 mg/kg"}, "[10]": {"settings": "female, CD-1, mouse, plasma, oral administration 10 mg/kg"}, "[11]": {"settings": "FaSSIF, initial pH 6.52, 37° C."}, "[12]": {"settings": "FeSSIF, initial pH 4.98, 37° C."}}, "data": [{"smiles": "Cc1cc2c(C(N)=O)c(N)n(-c3c(C)c(O)cc(F)c3C)c2nc1C", "note": "(single isomer, unassigned) [Compound 2]", "values": [{"measurement": "IC50", "setting": "MIA PaCa-2 cells [1]", "value": 4.32, "unit": "µM"}, {"measurement": "solubility at 0.5 h", "setting": "[2]; methanol", "value": 40600, "unit": "µg/mL"}, {"measurement": "solubility at 0.5 h", "setting": "[2]; tetrahydrofuran", "value": 6110, "unit": "µg/mL"}, {"measurement": "AUC(0-t)", "setting": "[3]; [9]", "value": 338, "unit": "ng·h/mL"}, {"measurement": "half-life", "setting": "[3]; [9]", "value": 3.32, "unit": "h"}, {"measurement": "Vd", "setting": "[3]; female, CD-1, mouse, plasma, iv, injection 2 mg/kg, read-out: Vdss", "value": 6.76, "unit": "L/kg"}, {"measurement": "AUC(0-t)", "setting": "[3]; [10]", "value": 638, "unit": "ng·h/mL"}, {"measurement": "Cmax", "setting": "[3]; [10]", "value": 603, "unit": "ng/mL"}, {"measurement": "half-life", "setting": "[3]; [10]", "value": 3.84, "unit": "h"}, {"measurement": "Cl", "setting": "[3]; injection 2 mg/kg", "value": 94.4, "unit": "mL/min/kg"}, {"measurement": "F %", "setting": "[3]; oral administration 10 mg/kg", "value": 44.5, "unit": "%"}, {"measurement": "Half-life T1/2 compared to RP-6306", "setting": "[3]; in words", "value": "longer half-life T1/2 compared to RP-6306"}, {"measurement": "Vdss compared to RP-6306", "setting": "[3]; in words", "value": "greater increase in Vdss compared to RP-6306"}, {"measurement": "efflux ratio at 90 min, 5 μM", "setting": "in vitro", "value": 1.56}, {"measurement": "Papp A→B at 90 min, 5 µM", "setting": "in vitro; Papp Mean", "value": 27.1, "unit": "×10⁻⁶ cm/s"}, {"measurement": "Papp B→A at 90 min, 5 µM", "setting": "in vitro; Papp Mean", "value": 42.2, "unit": "×10⁻⁶ cm/s"}, {"measurement": "Papp A→B at 90 min, 5 µM", "setting": "in vitro; Papp Sample - 01", "value": 27.9, "unit": "×10⁻⁶ cm/s"}, {"measurement": "Papp B→A at 90 min, 5 µM", "setting": "in vitro; Papp Sample - 01", "value": 40, "unit": "×10⁻⁶ cm/s"}, {"measurement": "Papp A→B at 90 min, 5 µM", "setting": "in vitro; Papp Sample - 02", "value": 26.3, "unit": "×10⁻⁶ cm/s"}, {"measurement": "Papp B→A at 90 min, 5 µM", "setting": "in vitro; Papp Sample - 02", "value": 44.5, "unit": "×10⁻⁶ cm/s"}, {"measurement": "Solubility compared to RP-6306", "setting": "[4]; FaSSIF, FeSSIF, SGF, water, methanol, and tetrahydrofuran, in words", "value": "higher solubility in various vehicles"}, {"measurement": "solubility at 0.5 h", "setting": "[4]; simulated gastric fluid, SGF, initial pH 1.2, 37° C.", "value": 4860, "unit": "µg/mL"}, {"measurement": "solubility at 0.5 h", "setting": "[4]; [11]", "value": 61, "unit": "µg/mL"}, {"measurement": "solubility at 0.5 h", "setting": "[4]; [12]", "value": 327, "unit": "µg/mL"}, {"measurement": "solubility at 0.5 h", "setting": "[4]; Water, initial pH 7.7, 37° C.", "value": 270, "unit": "µg/mL"}, {"measurement": "efflux ratio at 90 min, 5 μM", "setting": "[5]; MDCK-MDR1", "value": 1.71}, {"measurement": "Papp A→B at 90 min, 5 µM", "setting": "[5]; MDCK-MDR1, Papp Mean", "value": 20.5, "unit": "×10⁻⁶ cm/s"}, {"measurement": "Papp B→A at 90 min, 5 µM", "setting": "[5]; MDCK-MDR1, Papp Mean", "value": 35, "unit": "×10⁻⁶ cm/s"}, {"measurement": "Papp A→B at 90 min, 5 µM", "setting": "[5]; MDCK-MDR1, Papp Sample - 01", "value": 21.1, "unit": "×10⁻⁶ cm/s"}, {"measurement": "Papp B→A at 90 min, 5 µM", "setting": "[5]; MDCK-MDR1, Papp Sample - 01", "value": 35.3, "unit": "×10⁻⁶ cm/s"}, {"measurement": "Papp A→B at 90 min, 5 µM", "setting": "[5]; MDCK-MDR1, Papp Sample - 02", "value": 19.9, "unit": "×10⁻⁶ cm/s"}, {"measurement": "Papp B→A at 90 min, 5 µM", "setting": "[5]; MDCK-MDR1, Papp Sample - 02", "value": 34.8, "unit": "×10⁻⁶ cm/s"}, {"measurement": "Permeability compared to RP-6306", "setting": "[6]", "value": "superior permeability to that of RP-6306"}, {"measurement": "Stability compared to RP-6306", "setting": "[7]; FaSSIF, FeSSIF, and water, in words", "value": "more stable than RP-6306"}, {"measurement": "HPLC purity 0.5 h", "setting": "[7]; [11]", "value": "88.76 %, 220 nm"}, {"measurement": "HPLC purity 0.5 h", "setting": "[7]; [12]", "value": "95.98 %, 220 nm"}, {"measurement": "HPLC purity 0.5 h", "setting": "[7]; SGF, initial pH 1.2, 37° C.", "value": "98.69 %, 220 nm"}, {"measurement": "HPLC purity 0.5 h", "setting": "[7]; Water, initial pH 7.7, 37° C.", "value": "96.4 %, 220 nm"}, {"measurement": "Anti-proliferative activity against MIA PaCa-2 cells in combination with gemcitabine", "setting": "MIA PaCa-2 cells [8]; in words", "value": "stronger anti-proliferative activity than that of RP-6306"}, {"measurement": "IC50", "setting": "MIA PaCa-2 cells [8]; read-out: Anti-proliferative activity against MIA PaCa-2 cells (20 nM gemcitabine) IC50, with 20 nM gemcitabine, 72 h, intracellular ATP content", "value": 0.018, "unit": "µM"}]}]}
